According to patent US7897591B2, “Method of treating fatty liver disease” (priority 2005, dated 2011):

What was measured:
C57BL/6 mice = assay: MR spectroscopy of percentage liver fat content in HCD mouse model; assay type: in vivo; details: HCD+MAR mice, 100 mg/kg twice daily orogastric gavage, 19 days; mean±SEM; P<0.05 vs HCD-only (24.1±1.7%)
Procedure: Experiments were performed on 5-6 week-old C57BL/6 mice (Jackson Laboratories, Bar Harbor, Me.). The animals, in groups of five, were housed in a barrier room and were acclimated to their environment for at least 72 hours prior to the initiation of each experiment. Animal protocols complied with the NIH Animal Research Advisory Committee guidelines and were approved by the Children's Hospital Boston Animal Care and Use Committee. Control animals (n=5) received normal chow and water ad libitum. All animals in the experimental groups were fed a fat-free, high carbohydrate liquid diet (HCD) ad libitum placed in one bottle per cage as previously described (3, 62). No additional sources of nutrition or hydration were provided. […] Three 2 mm thick slices were imaged for each sample and the saturation recovery curves were generated from signal intensities measured in identically sized regions of interest within a given slice. […] Spectra were obtained following Fourier transformation and phasing, and percent fat content was determined relative to water by numerical integration of the areas under the lipid and water peaks by an independent blinded reviewer.

SREBP-1c = assay: Western blot of liver SREBP-1c; assay type: in vivo, mouse; details: across the treatment groups
Procedure: Control animals (n=5) received normal chow and water ad libitum. All animals in the experimental groups were fed a fat-free, high carbohydrate liquid diet (HCD) ad libitum placed in one bottle per cage as previously described (3, 62). No additional sources of nutrition or hydration were provided. The HCD liquid solution contained 20% dextrose, a commercial mixture of 2% essential and nonessential amino acids (TrophAmine, B. Braun Medical, Irvine, Calif.), 2 ml trace elements (Trace Elements Injection 4, USP—Pediatric, American Regent Shirley, N.Y.), and 5 ml multivitamins (M.V.I. Pediatric™, Mayne Pharma, Paramus, N.J.). Each liter of HCD contained 30 meq sodium, 20 meq potassium chloride, 15 meq calcium, 10 meq magnesium, and 10 mM phosphate. The bottles were replaced daily with fresh HCD solution. HCD animals (n=5) received HCD only and no additional treatment for 19 days. The HCD+MAR animals (n=15) additionally received 100 mg/kg of Marimastat™ in 0.45% methylcellulose (Sigma-Aldrich Corporation, St. Louis, Mo.) vehicle twice daily via orogastric gavage. The animals were individually weighed every third day and at sacrifice. […] The assay was read at 595 nm and analyzed with Softmax® PRO Software (Molecular Devices Corporation, Sunnyvale, Calif.). 30 ug of protein per sample were analyzed by SDS-PAGE. […]

## CNC(=O)[C@@H](NC(=O)[C@H](CC(C)C)[C@H](O)C(=O)NO)C(C)(C)C [Marimastat]
C57BL/6 mice
  liver fat content by MR spectroscopy: 8.1±1.2%
SREBP-1c
  SREBP-1c protein level: unchanged
